Results reported in patent publication US8795740B2, “Drip tray tablet” (Novapharm Research (Australia) Pty Ltd, priority 2003, dated 2014).

Assay: preservation of enzyme activity in the tablet in use
Assay type: physicochemical
Conditions: in the non-dissolved part of the tablet
From the text: A preferred boron compound is borax, which the present inventors have found acts to preserve the enzyme activity in use for at least 3 months in the non-dissolved part of the tablet. The present invention thus provides matching between the enzyme activity and tablet dissolution parameters.

Structure (SMILES): O=BOB(O)OB(O)OB=O [borax, Borax]
- time for which enzyme activity is preserved in use: at least 3 months
